Measured values from ChEMBL document CHEMBL1127223, “Evaluation of the intestinal permeability and hepatic handling of peptidomimetic analogs” (Bioorg Med Chem Lett, 1993).
Converted amounts (≈) assume the structure as drawn.

How the values were obtained:
[1] = Partition coefficient (LogP) value was evaluated; format: physicochemical; details: octanol/water
[2] = Tested for aqueous solubility of the compound; format: physicochemical; details: read-out: S
[3] = Tested for pKa value of the compound; format: physicochemical
[4] = target: T1, Renin (Rattus norvegicus) (UniProt P08424); test: Tested for percent inhibition against renin at 10 e-6 M concentration in rat; format: functional
T1 sequence (whole entry): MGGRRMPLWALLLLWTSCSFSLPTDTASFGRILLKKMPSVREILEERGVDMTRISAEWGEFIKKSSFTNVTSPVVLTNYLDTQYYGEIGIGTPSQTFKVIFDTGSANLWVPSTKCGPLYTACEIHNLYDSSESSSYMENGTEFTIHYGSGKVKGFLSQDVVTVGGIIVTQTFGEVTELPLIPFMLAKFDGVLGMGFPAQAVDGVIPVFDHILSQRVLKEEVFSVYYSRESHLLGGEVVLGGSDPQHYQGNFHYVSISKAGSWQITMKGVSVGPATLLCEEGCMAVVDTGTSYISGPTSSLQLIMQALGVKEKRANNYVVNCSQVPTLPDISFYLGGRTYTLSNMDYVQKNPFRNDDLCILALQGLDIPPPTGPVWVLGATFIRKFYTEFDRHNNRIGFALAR

[5] = target: T1, Renin (Rattus norvegicus); test: Tested for % inhibition against renin at 10E-6 M concentration; format: functional

| logP [1] | solubility [2] | pKa [3] | inhibition [4] | inhibition [5] | Structure (SMILES) |
| --- | --- | --- | --- | --- | --- |
| 3.1 | 0.01 mg/mL (≈ 14.1 µM) | 6.3 |  |  | CC(C)C[C@H](O)[C@H](O)[C@H](CC1CCCCC1)NC(=O)[C@H](Cc1csc(N)n1)NC(=O)[C@H](Cc1ccccc1)NS(=O)(=O)N1CCOCC1 |
| 4 | < 0.02 mg/mL |  | 0% |  | CC(C)C[C@H](O)[C@H](O)[C@H](CC1CCCCC1)NC(=O)OC(C)(C)C |
| 2 | 5.87 mg/mL (≈ 24100 µM) | 9.3 |  | 0% | CC(C)C[C@H](O)[C@H](O)[C@@H](N)CC1CCCCC1 |
